Source: patent US8476064B2, “Inhibition assay method and device for detection of antibiotics” (Charm Sciences, Inc., priority 2006, dated 2013)

What was measured:
[1] = system: B.st. spores; assay: Antibiotic detection test in spiked milk, borate/succinate culture of Example 6 (Table 4); format: cell-based, Bacillus (Geobacillus) Stearothermophilus; parameters: key to Color 1 / Color 2: Color result 1 and 2 is a negative result; Color result 1 and 2 is a negative result; 3 is a borderline result; 4 and 5 is a positive result; 4 and 5 is a positive result; settings: for % Pos (Color 2) / Color 2: after 16 hours at room temperature; for % Pos (Color 1) / Color 1: immediately after test completion
Experimental: BCP/Borate/Succinate Solution was prepared by adding 3.8 grams of Borate and 6 grams Succinate to 100 mL of reverse osmosis/deionized water (RO/DI Water) in 125 mL flask. 50 milligrams of BCP was added to a 50 mL conical tube and 5 mL of Borate/Succinate solution was added to the 50 milligrams BCP and mixed.
To prepare media 5 grams glucose and 1 gram Mueller Hinton Broth was dissolved in 100 mL RO/DI Water. 1.2 mL of a 0.01 mg/mL solution of trimethoprim in RO/DI Water was prepared and added to the media. A 20 mL of BCP/Borate/Succinate was added to the media and the media was sterile filtered through a 0.45 micron filter and then cooled to 4 degrees C.
Agar was prepared by combining 0.3 grams Difco Bacto-Agar (Item #0140-01), 0.225 NaCl and 17.485 RO/DI Water. The mixture was heated to 95° C. and then removed from the heat and allowed to cool to 75° C. Next 6 mL of media (prepared as described above with BCP/Tris) was added to the agar and mixed for 5 minutes. The mixture was cooled to 57° C. and 1 mL spore solution (concentration of 1 billion cfu/mL) was added and mixed together for 5 minutes. 0.200 mL was dispensed into the bottom of each of the vials.
In test operation 200 microliters of various milk sample, spiked with known concentrations of antibiotics, were pipetted into test vials and incubated for the prescribed time (in this test 2 hours 10 minutes) and prescribed temperature (64 degrees C.+/−2 degrees C.). Incubation was in the Charm I Inctronic incubator. Results were recorded immediately after test completion (Color 1) and after being left at room temperature for 16 hours (Color 2). Results listed are in parts per billion (ppb). 4 samples were run at each concentrations except for raw negative milk (16 samples) and 3 ppb pen G (2 samples) and amoxicillin (2 samples). Abbreviations are penicillin G (PenG); sulfamethazine (SMZ); sulfadimethoxine (SDM); tylosin (TY); gentamicin (G); oxytetracycline (OT); pirlimycin (Pirl); amoxicillin (Amox); ampicillin (Amp); cloxacillin (Clox); ceftiofur sodium (Ceft); cephaprin (Ceph); tilmicosin (Til); sulfadoxine (SDN); neomycin (Neo). Color result 1 and 2 is a negative result, 3 is a borderline result and 4 and 5 is a positive result.

[2] = system: B.st. spores; assay: Antibiotic detection test in spiked milk, Trizma/succinate culture of Example 7 (Table 5); format: cell-based, Bacillus (Geobacillus) Stearothermophilus; settings: for 16 hr Result / % Pos (16 hr Result): 16 hours later; for % Pos (Result) / Result: immediately after test completion
Experimental: A Trizma/Succinate solution was prepared by adding 2.5 grams Trizma Base and 6 grams Succinate to 100 mL of reverse osmosis/deionized water (RO/DI Water) in a 125 mL flask. 40 milligrams of BCP (see example 1 for BCP preparation) was then added to a 50 mL conical tube and 25 mL of the Trizma/Succinate solution was added to the 40 milligrams BCP and mixed.
The media was prepared by dissolving 5 grams glucose and 1 gram Mueller Hinton Broth in 100 mL RO/DI Water. 1.2 mL of a 0.01 mg/mL solution of trimethoprim in RO/DI water was added to the media. 20 mL of the BCP/Trizma/Succinate preparation was added to the media and the media was sterile filtered through a 0.45 micron filter and cooled to 4 degrees C.
0.3 grams Difco Bacto-Agar (Item #0140-01), 0.225 NaCl and 17 mL of RO/DI water was combined and mixed and heated the mixture to 95° C. The mixture was removed from the heat and allowed it to cool to 75° C. and then 6 mL media (with BCP/Tris) was added and mixed for 5 minutes. The mixture was cooled to 57° C. and 2 mL spore (concentration of 1 billion cfu/mL) was added and mixed for 5 minutes. 0.200 mL was dispensed into the bottom of each vial.
In test operation 200 microliters of various milk samples, spiked with known concentrations of antibiotics, were pipetted into vials and incubated for the prescribed time (in this test 2 hours 30 minutes) and prescribed temperature (64 degrees C.+/−2 degrees C.). Results were recorded immediately after test completion and 16 hours later. Incubation was in various Charm Inctronic I incubators. Concentrations listed are in parts per billion (ppb). 4 samples were run at each concentration except 16 negative samples were run and 2 samples each for 3 ppb pen G and amoxicillin. Abbreviations are pencillin G (PenG); sulfamethazine (SMZ); sulfadimethoxine (SDM); tylosin (TY); gentamicin (G); oxytetracycline (OT); pirlimycin (Pirl); amoxicillin (Amox); ampicillin (Amp); cloxacillin (Clox); ceftiofur sodium (Ceft); cephaprin (Ceph); tilmicosin (Til); sulfadoxine (SDN); neomycin (Neo).

CC1(C)S[C@@H]2[C@H](NC(=O)[C@H](N)c3ccc(O)cc3)C(=O)N2[C@H]1C(=O)O [Amox, amoxicillin]
% Pos (Color 2) ([1]; milk spiked at 6 ppb): 100%
Color 2 ([1]; milk spiked at 6 ppb): 5
% Pos (Color 1) ([1]; milk spiked at 6 ppb): 100%
Color 1 ([1]; milk spiked at 6 ppb): 5
16 hr Result ([2]; milk spiked at 6 ppb): Pos
% Pos (16 hr Result) ([2]; milk spiked at 6 ppb): 100%
% Pos (Result) ([2]; milk spiked at 6 ppb): 100%
Result ([2]; milk spiked at 6 ppb): Pos

CC1(C)S[C@@H]2[C@H](NC(=O)[C@H](N)c3ccccc3)C(=O)N2[C@H]1C(=O)O [Amp, ampicillin]
% Pos (Color 2) ([1]; milk spiked at 5 ppb): 100%
Color 2 ([1]; milk spiked at 5 ppb): 4
% Pos (Color 1) ([1]; milk spiked at 5 ppb): 100%
Color 1 ([1]; milk spiked at 5 ppb): 5
16 hr Result ([2]; milk spiked at 5 ppb): Pos
% Pos (16 hr Result) ([2]; milk spiked at 5 ppb): 100%
% Pos (Result) ([2]; milk spiked at 5 ppb): 100%
Result ([2]; milk spiked at 5 ppb): Pos

CO/N=C(\C(=O)N[C@@H]1C(=O)N2C(C(=O)O)=C(CSC(=O)c3ccco3)CS[C@H]12)c1csc(N)n1 [Ceft, ceftiofur sodium]
% Pos (Color 2) ([1]; milk spiked at 50 ppb): 0%
Color 2 ([1]; milk spiked at 50 ppb): 1
% Pos (Color 1) ([1]; milk spiked at 50 ppb): 0%
Color 1 ([1]; milk spiked at 50 ppb): 1
% Pos (Color 2) ([1]; milk spiked at 100 ppb): 0%
Color 2 ([1]; milk spiked at 100 ppb): 2
% Pos (Color 1) ([1]; milk spiked at 100 ppb): 0%
Color 1 ([1]; milk spiked at 100 ppb): 2
16 hr Result ([2]; milk spiked at 50 ppb): Pos
% Pos (16 hr Result) ([2]; milk spiked at 50 ppb): 100%
% Pos (Result) ([2]; milk spiked at 50 ppb): 100%
Result ([2]; milk spiked at 50 ppb): Pos
16 hr Result ([2]; milk spiked at 100 ppb): Pos
% Pos (16 hr Result) ([2]; milk spiked at 100 ppb): 100%
% Pos (Result) ([2]; milk spiked at 100 ppb): 100%
Result ([2]; milk spiked at 100 ppb): Pos

CC(=O)OCC1=C(C(=O)O)N2C(=O)[C@@H](NC(=O)CSc3ccncc3)[C@H]2SC1 [Ceph, cephaprin]
% Pos (Color 2) ([1]; milk spiked at 10 ppb): 100%
Color 2 ([1]; milk spiked at 10 ppb): 5
% Pos (Color 1) ([1]; milk spiked at 10 ppb): 100%
Color 1 ([1]; milk spiked at 10 ppb): 5
16 hr Result ([2]; milk spiked at 10 ppb): Pos
% Pos (16 hr Result) ([2]; milk spiked at 10 ppb): 100%
% Pos (Result) ([2]; milk spiked at 10 ppb): 100%
Result ([2]; milk spiked at 10 ppb): Pos

Cc1onc(-c2ccccc2Cl)c1C(=O)N[C@@H]1C(=O)N2[C@@H]1SC(C)(C)[C@@H]2C(=O)O [Clox, cloxacillin]
% Pos (Color 2) ([1]; milk spiked at 30 ppb): 100%
Color 2 ([1]; milk spiked at 30 ppb): 5
% Pos (Color 1) ([1]; milk spiked at 30 ppb): 100%
Color 1 ([1]; milk spiked at 30 ppb): 4
% Pos (Color 2) ([1]; milk spiked at 50 ppb): 100%
Color 2 ([1]; milk spiked at 50 ppb): 5
% Pos (Color 1) ([1]; milk spiked at 50 ppb): 100%
Color 1 ([1]; milk spiked at 50 ppb): 5
16 hr Result ([2]; milk spiked at 30 ppb): Pos
% Pos (16 hr Result) ([2]; milk spiked at 30 ppb): 100%
% Pos (Result) ([2]; milk spiked at 30 ppb): 100%
Result ([2]; milk spiked at 30 ppb): Pos
16 hr Result ([2]; milk spiked at 50 ppb): Pos
% Pos (16 hr Result) ([2]; milk spiked at 50 ppb): 100%
% Pos (Result) ([2]; milk spiked at 50 ppb): 100%
Result ([2]; milk spiked at 50 ppb): Pos

NC[C@@H]1O[C@H](O[C@H]2[C@@H](O)[C@H](O[C@@H]3[C@@H](O)[C@H](N)C[C@H](N)[C@H]3O[C@H]3O[C@H](CN)[C@@H](O)[C@H](O)[C@H]3N)O[C@@H]2CO)[C@H](N)[C@@H](O)[C@@H]1O [Neo, neomycin]
% Pos (Color 2) ([1]; milk spiked at 750 ppb): 100%
Color 2 ([1]; milk spiked at 750 ppb): 5
% Pos (Color 1) ([1]; milk spiked at 750 ppb): 100%
Color 1 ([1]; milk spiked at 750 ppb): 5
16 hr Result ([2]; milk spiked at 750 ppb): Pos
% Pos (16 hr Result) ([2]; milk spiked at 750 ppb): 100%
% Pos (Result) ([2]; milk spiked at 750 ppb): 100%
Result ([2]; milk spiked at 750 ppb): Pos

CC[C@@H]1CCN[C@H](C(=O)N[C@@H]([C@H]2O[C@H](SC)[C@H](O)[C@@H](O)[C@H]2O)[C@H](C)Cl)C1 [Pirl, pirlimycin]
% Pos (Color 2) ([1]; milk spiked at 100 ppb): 100%
Color 2 ([1]; milk spiked at 100 ppb): 4
% Pos (Color 1) ([1]; milk spiked at 100 ppb): 100%
Color 1 ([1]; milk spiked at 100 ppb): 4
% Pos (Color 2) ([1]; milk spiked at 200 ppb): 100%
Color 2 ([1]; milk spiked at 200 ppb): 5
% Pos (Color 1) ([1]; milk spiked at 200 ppb): 100%
Color 1 ([1]; milk spiked at 200 ppb): 5
16 hr Result ([2]; milk spiked at 100 ppb): Pos
% Pos (16 hr Result) ([2]; milk spiked at 100 ppb): 100%
% Pos (Result) ([2]; milk spiked at 100 ppb): 100%
Result ([2]; milk spiked at 100 ppb): Pos
16 hr Result ([2]; milk spiked at 200 ppb): Pos
% Pos (16 hr Result) ([2]; milk spiked at 200 ppb): 100%
% Pos (Result) ([2]; milk spiked at 200 ppb): 100%
Result ([2]; milk spiked at 200 ppb): Pos

COc1ncnc(NS(=O)(=O)c2ccc(N)cc2)c1OC [SDN, sulfadoxine]
% Pos (Color 2) ([1]; milk spiked at 100 ppb): 100%
Color 2 ([1]; milk spiked at 100 ppb): 4
% Pos (Color 1) ([1]; milk spiked at 100 ppb): 100%
Color 1 ([1]; milk spiked at 100 ppb): 5
16 hr Result ([2]; milk spiked at 100 ppb): Pos
% Pos (16 hr Result) ([2]; milk spiked at 100 ppb): 100%
% Pos (Result) ([2]; milk spiked at 100 ppb): 100%
Result ([2]; milk spiked at 100 ppb): Pos

CC[C@H]1OC(=O)C[C@@H](O)[C@H](C)[C@@H](O[C@@H]2O[C@H](C)[C@@H](O)[C@H](N(C)C)[C@H]2O)[C@@H](CCN2C[C@H](C)C[C@H](C)C2)C[C@@H](C)C(=O)/C=C/C(C)=C/[C@@H]1CO[C@@H]1O[C@H](C)[C@@H](O)[C@@H](OC)[C@H]1OC [Til, tilmicosin]
% Pos (Color 2) ([1]; milk spiked at 80 ppb): 100%
Color 2 ([1]; milk spiked at 80 ppb): 5
% Pos (Color 1) ([1]; milk spiked at 80 ppb): 100%
Color 1 ([1]; milk spiked at 80 ppb): 5
16 hr Result ([2]; milk spiked at 80 ppb): Pos
% Pos (16 hr Result) ([2]; milk spiked at 80 ppb): 100%
% Pos (Result) ([2]; milk spiked at 80 ppb): 100%
Result ([2]; milk spiked at 80 ppb): Pos
